Assay results from US10750743B2, “Pyridazinone herbicides” (E.I. DU PONT DE NEMOURS AND COMPANY, priority 2015, dated 2020).

How the values were obtained:
Type in all cases: in vivo
kochia (Kochia scoparia) [1] = assay: Test A preemergence, directed soil spray, visual injury rating; settings: 0 is no effect, 100 is complete control
How it was run: (§1)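 Injury ratings, 0 (no effect) to 100 (complete control), were scored visually versus untreated plants roughly 10 d after treatment under greenhouse conditions. Treatments used surfactant-containing solvent formulations, sprayed onto soil preemergence or onto one- to two-leaf seedlings (2-10 cm) postemergence, grown in a loam-sand mix.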

[2] = tested on: pigweed (Amaranthus retroflexus); assay: as above; settings: 0 is no effect, 100 is complete control
How it was run: as §1

[3] = tested on: ragweed (common ragweed, Ambrosia elatior); assay: as above; settings: 0 is no effect, 100 is complete control
How it was run: as §1

[4] = tested on: foxtail, giant (giant foxtail, Setaria faberii); assay: as above; settings: 0 is no effect, 100 is complete control
How it was run: as §1

[5] = tested on: barnyardgrass (Echinochloa crus-galli); assay: as above; settings: 0 is no effect, 100 is complete control
How it was run: as §1

[6] = tested on: ryegrass, It. (Italian ryegrass, Lolium multiflorum); assay: as above; settings: 0 is no effect, 100 is complete control
How it was run: as §1

kochia (Kochia scoparia) [7] = assay: Test A postemergence application, visual injury rating; settings: for Plant response rating (0 to 100 scale), Kochia: 31 g ai/ha, 0 is no effect, 100 is complete control; for Kochia plant response rating: 125 g ai/ha, 0 to 100 scale, 0 no effect, 100 complete control
How it was run: as §1

[8] = tested on: pigweed (Amaranthus retroflexus); assay: as above; settings: for Plant response rating (0 to 100 scale), Pigweed: 31 g ai/ha, 0 is no effect, 100 is complete control; for Pigweed plant response rating: 125 g ai/ha, 0 to 100 scale, 0 no effect, 100 complete control
How it was run: as §1

[9] = tested on: galium (catchweed bedstraw, Galium aparine); assay: as above; settings: for Plant response rating (0 to 100 scale), Galium: 31 g ai/ha, 0 is no effect, 100 is complete control; for Galium plant response rating: 125 g ai/ha, 0 to 100 scale, 0 no effect, 100 complete control
How it was run: as §1

corn (Zea mays) = assay: as above; settings: for Plant response rating (0 to 100 scale), Corn: 31 g ai/ha, 0 is no effect, 100 is complete control; for Corn plant response rating: 125 g ai/ha, 0 to 100 scale, 0 no effect, 100 complete control
How it was run: as §1

[10] = tested on: ragweed (common ragweed, Ambrosia elatior); assay: as above; settings: for Plant response rating (0 to 100 scale), Ragweed: 31 g ai/ha, 0 is no effect, 100 is complete control; for Ragweed plant response rating: 125 g ai/ha, 0 to 100 scale, 0 no effect, 100 complete control
How it was run: as §1

[11] = tested on: blackgrass (Alopecurus myosuroides); assay: as above; settings: 0 to 100 scale, 0 no effect, 100 complete control
How it was run: as §1

[12] = tested on: foxtail, giant (giant foxtail, Setaria faberii); assay: as above; settings: for Plant response rating (0 to 100 scale), Foxtail, Giant: 31 g ai/ha, 0 is no effect, 100 is complete control; for Foxtail, Giant plant response rating: 125 g ai/ha, 0 to 100 scale, 0 no effect, 100 complete control
How it was run: as §1

[13] = tested on: barnyardgrass (Echinochloa crus-galli); assay: as above; settings: 0 to 100 scale, 0 no effect, 100 complete control
How it was run: as §1

[14] = tested on: wheat (Triticum aestivum); assay: as above; settings: for Plant response rating (0 to 100 scale), Wheat: 31 g ai/ha, 0 is no effect, 100 is complete control; for Wheat plant response rating: 125 g ai/ha, 0 to 100 scale, 0 no effect, 100 complete control
How it was run: as §1

[15] = tested on: ryegrass, It. (Italian ryegrass, Lolium multiflorum); assay: as above; settings: for Plant response rating (0 to 100 scale), Ryegrass, It.: 31 g ai/ha, 0 is no effect, 100 is complete control; for Ryegrass, It. plant response rating: 125 g ai/ha, 0 to 100 scale, 0 no effect, 100 complete control
How it was run: as §1

rice (Oryza sativa) = assay: Test B flooded paddy test, visual rating; settings: Flood, 250 g ai/ha, applied to paddy water, rated after 13 to 15 d
How it was run: (§2)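 Ratings use a 0-100 visual scale, where 100 is complete control, and compare treated plants with controls after 13 to 15 d of greenhouse growth. Compound went straight into paddy water kept 3 cm over the soil surface, applied to seedlings at the 2-leaf stage.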

[16] = tested on: ducksalad (Heteranthera limosa); assay: Test B flooded paddy test, visual rating; settings: Flood, 250 g ai/ha, applied to paddy water, rated after 13 to 15 d
How it was run: as §2

[17] = tested on: sedge, umbrella (small-flower umbrella sedge, Cyperus difformis); assay: Test B flooded paddy test, visual rating; settings: Flood, 250 g ai/ha, applied to paddy water, rated after 13 to 15 d
How it was run: as §2

[18] = tested on: barnyardgrass (Echinochloa crus-galli); assay: Test B flooded paddy test, visual rating; settings: Flood, 250 g ai/ha, applied to paddy water, rated after 13 to 15 d
How it was run: as §2

SMILES: Cc1nn(C)c(=O)c(-c2ccc(Cl)c3sccc23)c1O [Compound 63]
- Plant response rating (0 to 100 scale), Kochia (kochia (Kochia scoparia) [1]; 31 g ai/ha): 10
- Plant response rating (0 to 100 scale), Kochia (kochia (Kochia scoparia) [1]; 125 g ai/ha): 20
- Plant response rating (0 to 100 scale), Pigweed ([2]; 31 g ai/ha): 0
- Plant response rating (0 to 100 scale), Pigweed ([2]; 125 g ai/ha): 0
- Plant response rating (0 to 100 scale), Ragweed ([3]; 31 g ai/ha): 0
- Plant response rating (0 to 100 scale), Ragweed ([3]; 125 g ai/ha): 0
- Plant response rating (0 to 100 scale), Foxtail, Giant ([4]; 31 g ai/ha): 0
- Plant response rating (0 to 100 scale), Foxtail, Giant ([4]; 125 g ai/ha): 0
- Plant response rating (0 to 100 scale), Barnyardgrass ([5]; 31 g ai/ha): 0
- Plant response rating (0 to 100 scale), Barnyardgrass ([5]; 125 g ai/ha): 0
- Plant response rating (0 to 100 scale), Ryegrass, It. ([6]; 31 g ai/ha): 0
- Plant response rating (0 to 100 scale), Ryegrass, It. ([6]; 125 g ai/ha): 20
- Plant response rating (0 to 100 scale), Kochia (kochia (Kochia scoparia) [7]): 0
- Kochia plant response rating (kochia (Kochia scoparia) [7]): 60
- Plant response rating (0 to 100 scale), Pigweed [8]: 0
- Pigweed plant response rating [8]: 50
- Plant response rating (0 to 100 scale), Galium [9]: 30
- Galium plant response rating [9]: 90
- Plant response rating (0 to 100 scale), Corn (corn (Zea mays)): 0
- Corn plant response rating (corn (Zea mays)): 0
- Plant response rating (0 to 100 scale), Ragweed [10]: 0
- Ragweed plant response rating [10]: 0
- Blackgrass plant response rating ([11]; 31 g ai/ha): 0
- Blackgrass plant response rating ([11]; 125 g ai/ha): 0
- Plant response rating (0 to 100 scale), Foxtail, Giant [12]: 0
- Foxtail, Giant plant response rating [12]: 0
- Barnyardgrass plant response rating ([13]; 31 g ai/ha): 0
- Barnyardgrass plant response rating ([13]; 125 g ai/ha): 0
- Plant response rating (0 to 100 scale), Wheat [14]: 0
- Wheat plant response rating [14]: 0
- Plant response rating (0 to 100 scale), Ryegrass, It. [15]: 0
- Ryegrass, It. plant response rating [15]: 10
- Rice plant response rating (0 to 100 scale, 0 is no effect, 100 is complete control) (rice (Oryza sativa)): 0
- Ducksalad plant response rating (0 to 100 scale, 0 is no effect, 100 is complete control) [16]: 0
- Sedge, Umbrella plant response rating (0 to 100 scale, 0 is no effect, 100 is complete control) [17]: 0
- Barnyardgrass plant response rating (0 to 100 scale, 0 is no effect, 100 is complete control) [18]: 0

SMILES: CC(=O)Oc1c(Cl)nn(C)c(=O)c1-c1nccc2ccccc12 [Compound 66]
- Plant response rating (0 to 100 scale), Kochia (kochia (Kochia scoparia) [1]; 31 g ai/ha): 0
- Plant response rating (0 to 100 scale), Kochia (kochia (Kochia scoparia) [1]; 125 g ai/ha): 0
- Plant response rating (0 to 100 scale), Pigweed ([2]; 31 g ai/ha): 10
- Plant response rating (0 to 100 scale), Pigweed ([2]; 125 g ai/ha): 20
- Plant response rating (0 to 100 scale), Ragweed ([3]; 31 g ai/ha): 0
- Plant response rating (0 to 100 scale), Ragweed ([3]; 125 g ai/ha): 0
- Plant response rating (0 to 100 scale), Foxtail, Giant ([4]; 31 g ai/ha): 0
- Plant response rating (0 to 100 scale), Foxtail, Giant ([4]; 125 g ai/ha): 0
- Plant response rating (0 to 100 scale), Barnyardgrass ([5]; 31 g ai/ha): 0
- Plant response rating (0 to 100 scale), Barnyardgrass ([5]; 125 g ai/ha): 0
- Plant response rating (0 to 100 scale), Ryegrass, It. ([6]; 31 g ai/ha): 0
- Plant response rating (0 to 100 scale), Ryegrass, It. ([6]; 125 g ai/ha): 50
- Plant response rating (0 to 100 scale), Kochia (kochia (Kochia scoparia) [7]): 0
- Kochia plant response rating (kochia (Kochia scoparia) [7]): 40
- Plant response rating (0 to 100 scale), Pigweed [8]: 40
- Pigweed plant response rating [8]: 50
- Plant response rating (0 to 100 scale), Galium [9]: 0
- Galium plant response rating [9]: 50
- Plant response rating (0 to 100 scale), Corn (corn (Zea mays)): 0
- Corn plant response rating (corn (Zea mays)): 0
- Plant response rating (0 to 100 scale), Ragweed [10]: 10
- Ragweed plant response rating [10]: 30
- Blackgrass plant response rating ([11]; 31 g ai/ha): 0
- Blackgrass plant response rating ([11]; 125 g ai/ha): 0
- Plant response rating (0 to 100 scale), Foxtail, Giant [12]: 0
- Foxtail, Giant plant response rating [12]: 10
- Barnyardgrass plant response rating ([13]; 31 g ai/ha): 0
- Barnyardgrass plant response rating ([13]; 125 g ai/ha): 10
- Plant response rating (0 to 100 scale), Wheat [14]: 0
- Wheat plant response rating [14]: 0
- Plant response rating (0 to 100 scale), Ryegrass, It. [15]: 20
- Ryegrass, It. plant response rating [15]: 40
- Rice plant response rating (0 to 100 scale, 0 is no effect, 100 is complete control) (rice (Oryza sativa)): 0
- Ducksalad plant response rating (0 to 100 scale, 0 is no effect, 100 is complete control) [16]: 0
- Sedge, Umbrella plant response rating (0 to 100 scale, 0 is no effect, 100 is complete control) [17]: 0
- Barnyardgrass plant response rating (0 to 100 scale, 0 is no effect, 100 is complete control) [18]: 0

SMILES: Cn1nc(Cl)c(O)c(-c2ccc(F)c3ccoc23)c1=O [Compound 70]
- Plant response rating (0 to 100 scale), Kochia (kochia (Kochia scoparia) [1]; 31 g ai/ha): 0
- Plant response rating (0 to 100 scale), Kochia (kochia (Kochia scoparia) [1]; 125 g ai/ha): 40
- Plant response rating (0 to 100 scale), Pigweed ([2]; 31 g ai/ha): 10
- Plant response rating (0 to 100 scale), Pigweed ([2]; 125 g ai/ha): 30
- Plant response rating (0 to 100 scale), Ragweed ([3]; 31 g ai/ha): 0
- Plant response rating (0 to 100 scale), Ragweed ([3]; 125 g ai/ha): 0
- Plant response rating (0 to 100 scale), Foxtail, Giant ([4]; 31 g ai/ha): 10
- Plant response rating (0 to 100 scale), Foxtail, Giant ([4]; 125 g ai/ha): 50
- Plant response rating (0 to 100 scale), Barnyardgrass ([5]; 31 g ai/ha): 40
- Plant response rating (0 to 100 scale), Barnyardgrass ([5]; 125 g ai/ha): 90
- Plant response rating (0 to 100 scale), Ryegrass, It. ([6]; 31 g ai/ha): 70
- Plant response rating (0 to 100 scale), Ryegrass, It. ([6]; 125 g ai/ha): 100
- Plant response rating (0 to 100 scale), Kochia (kochia (Kochia scoparia) [7]): 40
- Kochia plant response rating (kochia (Kochia scoparia) [7]): 90
- Plant response rating (0 to 100 scale), Pigweed [8]: 10
- Pigweed plant response rating [8]: 70
- Plant response rating (0 to 100 scale), Galium [9]: 50
- Galium plant response rating [9]: 90
- Plant response rating (0 to 100 scale), Corn (corn (Zea mays)): 0
- Corn plant response rating (corn (Zea mays)): 0
- Plant response rating (0 to 100 scale), Ragweed [10]: 10
- Ragweed plant response rating [10]: 90
- Blackgrass plant response rating ([11]; 31 g ai/ha): 0
- Blackgrass plant response rating ([11]; 125 g ai/ha): 30
- Plant response rating (0 to 100 scale), Foxtail, Giant [12]: 10
- Foxtail, Giant plant response rating [12]: 40
- Barnyardgrass plant response rating ([13]; 31 g ai/ha): 10
- Barnyardgrass plant response rating ([13]; 125 g ai/ha): 90
- Plant response rating (0 to 100 scale), Wheat [14]: 0
- Wheat plant response rating [14]: 0
- Plant response rating (0 to 100 scale), Ryegrass, It. [15]: 70
- Ryegrass, It. plant response rating [15]: 100
- Rice plant response rating (0 to 100 scale, 0 is no effect, 100 is complete control) (rice (Oryza sativa)): 0
- Ducksalad plant response rating (0 to 100 scale, 0 is no effect, 100 is complete control) [16]: 0
- Sedge, Umbrella plant response rating (0 to 100 scale, 0 is no effect, 100 is complete control) [17]: 0
- Barnyardgrass plant response rating (0 to 100 scale, 0 is no effect, 100 is complete control) [18]: 0
